{
  "source": "ChEMBL document CHEMBL5512607",
  "about": "“Journey of Von Hippel-Lindau (VHL) E3 ligase in PROTACs design: From VHL ligands to VHL-based degraders” (Eur J Med Chem, 2024)",
  "key": {"Bcl-2-like protein 1": {"target": "Bcl-2-like protein 1 (Homo sapiens, UniProt Q07817)", "sequence (Q07817 whole entry)": "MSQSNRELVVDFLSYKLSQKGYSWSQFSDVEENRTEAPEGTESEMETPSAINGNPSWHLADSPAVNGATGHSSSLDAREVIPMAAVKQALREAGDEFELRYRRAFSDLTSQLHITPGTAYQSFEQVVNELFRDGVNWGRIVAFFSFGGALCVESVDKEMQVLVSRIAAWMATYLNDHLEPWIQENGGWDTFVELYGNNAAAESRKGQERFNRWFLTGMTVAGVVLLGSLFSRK", "experiment": "Induction of Bcl-xl degradation in HEK293T cells incubated for 16 hrs by immunoblotting analysis", "assay_type": "cell-based"}, "[1]": {"target": "Apoptosis regulator Bcl-2 (Homo sapiens, UniProt P10415)", "sequence (P10415 whole entry)": "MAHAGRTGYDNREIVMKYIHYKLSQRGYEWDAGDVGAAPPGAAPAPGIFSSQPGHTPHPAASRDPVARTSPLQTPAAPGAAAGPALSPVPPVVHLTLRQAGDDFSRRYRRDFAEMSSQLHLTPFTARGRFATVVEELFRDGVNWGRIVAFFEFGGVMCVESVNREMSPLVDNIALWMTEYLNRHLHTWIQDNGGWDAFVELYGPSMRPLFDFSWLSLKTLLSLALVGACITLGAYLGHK", "experiment": "Induction of Bcl2 degradation in HEK293T cells incubated for 16 hrs by immunoblotting analysis", "assay_type": "cell-based"}, "[2]": {"system": "von Hippel-Lindau disease tumor suppressor/Epidermal growth factor receptor (Homo sapiens), P00533+P40337 [UNDEFINED MUTATION]", "sequence (P00533 whole entry, looked up, stated change not applied)": "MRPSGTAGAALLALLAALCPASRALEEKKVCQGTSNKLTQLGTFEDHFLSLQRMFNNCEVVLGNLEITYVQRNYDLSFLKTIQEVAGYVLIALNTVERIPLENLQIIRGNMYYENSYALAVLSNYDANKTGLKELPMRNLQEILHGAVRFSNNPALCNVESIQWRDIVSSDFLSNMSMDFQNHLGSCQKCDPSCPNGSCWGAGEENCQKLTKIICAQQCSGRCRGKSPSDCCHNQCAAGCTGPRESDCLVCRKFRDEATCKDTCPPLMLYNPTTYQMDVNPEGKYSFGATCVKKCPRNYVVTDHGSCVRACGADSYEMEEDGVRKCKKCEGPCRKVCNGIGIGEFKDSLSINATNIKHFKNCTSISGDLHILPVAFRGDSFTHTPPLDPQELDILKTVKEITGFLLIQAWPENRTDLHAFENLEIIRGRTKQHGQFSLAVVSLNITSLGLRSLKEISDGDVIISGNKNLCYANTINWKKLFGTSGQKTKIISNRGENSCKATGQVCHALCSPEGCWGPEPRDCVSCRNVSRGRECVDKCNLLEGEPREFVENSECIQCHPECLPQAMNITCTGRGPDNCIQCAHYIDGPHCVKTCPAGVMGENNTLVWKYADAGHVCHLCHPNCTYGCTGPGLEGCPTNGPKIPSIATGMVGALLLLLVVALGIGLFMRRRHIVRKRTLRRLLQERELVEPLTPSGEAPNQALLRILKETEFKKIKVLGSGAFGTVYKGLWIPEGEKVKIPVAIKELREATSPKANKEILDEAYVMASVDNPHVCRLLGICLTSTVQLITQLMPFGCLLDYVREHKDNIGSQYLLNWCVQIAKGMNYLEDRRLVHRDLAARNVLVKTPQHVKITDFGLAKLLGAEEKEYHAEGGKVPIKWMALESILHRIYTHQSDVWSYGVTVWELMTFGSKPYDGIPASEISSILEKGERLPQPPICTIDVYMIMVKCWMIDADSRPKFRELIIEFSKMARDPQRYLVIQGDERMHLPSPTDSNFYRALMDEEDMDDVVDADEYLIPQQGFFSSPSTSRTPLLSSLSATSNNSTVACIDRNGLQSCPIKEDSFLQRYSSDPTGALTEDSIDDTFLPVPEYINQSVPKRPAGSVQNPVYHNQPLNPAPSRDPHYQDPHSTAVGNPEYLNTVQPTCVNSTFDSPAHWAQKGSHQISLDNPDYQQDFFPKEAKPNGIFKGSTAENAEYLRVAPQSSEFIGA", "sequence (P40337 whole entry, looked up, stated change not applied)": "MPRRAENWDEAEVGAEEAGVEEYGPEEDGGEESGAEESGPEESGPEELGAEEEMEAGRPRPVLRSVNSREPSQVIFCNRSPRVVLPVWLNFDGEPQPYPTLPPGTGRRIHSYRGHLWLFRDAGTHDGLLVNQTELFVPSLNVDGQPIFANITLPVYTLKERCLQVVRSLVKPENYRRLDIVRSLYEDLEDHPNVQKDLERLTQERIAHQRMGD", "experiment": "PROTAC activity at VHL/EGFR del19 mutant in human NCI-H3255 cells assessed as maximal degradation incubated for 24 hrs by immunoblot analysis relative to control", "assay_type": "cell-based"}, "[3]": {"target": "T1, von Hippel-Lindau disease tumor suppressor/Epidermal growth factor receptor (Homo sapiens, UniProt P00533+P40337)", "T1 sequence (P00533 whole entry, looked up, stated change not applied)": "as the sequence (P00533 whole entry, looked up, stated change not applied) above", "T1 sequence (P40337 whole entry, looked up, stated change not applied)": "as the sequence (P40337 whole entry, looked up, stated change not applied) above", "experiment": "PROTAC activity at VHL/EGFR del19 mutant in human NCI-H3255 cells assessed as protein degradation incubated for 24 hrs by immunoblot analysis", "assay_type": "cell-based"}, "[4]": {"system": "von Hippel-Lindau disease tumor suppressor/Epidermal growth factor receptor (Homo sapiens), P00533+P40337 [UNDEFINED MUTATION]", "experiment": "PROTAC activity at VHL/EGFR del19 mutant in human HCC827 cells assessed as maximal degradation incubated for 24 hrs by immunoblot analysis relative to control", "assay_type": "cell-based"}, "[5]": {"target": "T1, von Hippel-Lindau disease tumor suppressor/Epidermal growth factor receptor", "experiment": "PROTAC activity at VHL/EGFR del19 mutant in human HCC827 cells assessed as protein degradation incubated for 24 hrs by immunoblot analysis", "assay_type": "cell-based"}, "[6]": {"target": "T2, von Hippel-Lindau disease tumor suppressor/Bcl-2-like protein 1 (Homo sapiens, UniProt Q07817+P40337)", "experiment": "PROTAC activity at VHL/BCL-XL in human MOLT-4 cells assessed as induction of BCL-XL degradation incubated for 16 hrs by immunoblot analysis", "assay_type": "cell-based"}, "MOLT-4 [7]": {"system": "MOLT-4", "experiment": "Anticancer activity against human MOLT-4 cells assessed as reduction in cell viability incubated for 72 hrs by MTS assay", "assay_type": "functional, cell-based", "details": "MOLT-4, 72 h"}, "[8]": {"target": "T2, von Hippel-Lindau disease tumor suppressor/Bcl-2-like protein 1", "experiment": "Protac activity at VHL/BCL-XL in human MOLT-4 cells assessed as induction of protein degradation by measuring maximal degradation relative to control", "assay_type": "cell-based"}, "MOLT-4 [9]": {"system": "MOLT-4", "experiment": "Antiproliferative activity against human MOLT-4 cells assessed as cell growth inhibition incubated for 72 hrs by Cell Titer-Glo Luminescent assay", "assay_type": "functional, cell-based", "details": "MOLT-4, 72 h"}, "[10]": {"target": "T2, von Hippel-Lindau disease tumor suppressor/Bcl-2-like protein 1", "experiment": "PROTAC activity at VHL/BCL-XL in human THP-1 cells assessed as induction of BCL-XL degradation incubated for 16 hrs by immunoblot analysis", "assay_type": "cell-based"}, "[11]": {"target": "T2, von Hippel-Lindau disease tumor suppressor/Bcl-2-like protein 1", "experiment": "PROTAC activity at VHL/BCL-XL in human THP-1 cells assessed as induction of protein degradation by measuring maximal degradation relative to control", "assay_type": "cell-based"}},
  "data": [
    {"smiles": "Cc1ncsc1-c1ccc([C@H](C)NC(=O)[C@@H]2C[C@@H](O)CN2C(=O)[C@H](NC(=O)CCCCCCC(=O)N2CCN(C[C@]3(C)CCC(c4ccc(Cl)cc4)=C(CN4CCN(c5ccc(C(=O)NS(=O)(=O)c6ccc(N[C@H](CCN7CCOCC7)CSc7ccccc7)c(S(=O)(=O)C(F)(F)F)c6)cc5)CC4)C3)CC2)C(C)(C)C)cc1", "values": [
      {"measurement": "DC50", "setting": "Bcl-2-like protein 1", "value": 6, "unit": "nM"},
      {"measurement": "DC50", "setting": "[1]", "value": 48, "unit": "nM"}
    ]},
    {"smiles": "COc1cc2ncnc(Nc3ccc(F)c(Cl)c3)c2cc1OCCCCCOCCOCCC(=O)N[C@@H](C(=O)N1C[C@@H](O)C[C@@H]1C(=O)NCc1ccc(-c2scnc2C)cc1)C(C)(C)C", "values": [
      {"measurement": "Emax", "setting": "[2]", "value": 96.6, "unit": "%"},
      {"measurement": "DC50", "setting": "[3]", "value": 22.3, "unit": "nM"},
      {"measurement": "Emax", "setting": "[4]", "value": 98.9, "unit": "%"},
      {"measurement": "DC50", "setting": "[5]", "value": 11.7, "unit": "nM"}
    ]},
    {"smiles": "Cc1ncsc1-c1ccc([C@H](C)NC(=O)[C@H]2C[C@H](O)CN2C(=O)[C@@H](NC(=O)CCCCCC(=O)N2CCN(CC[C@H](CSc3ccccc3)Nc3ccc(S(=O)(=O)NC(=O)c4ccc(N5CCN(CC6=C(c7ccc(Cl)cc7)CCC(C)(C)C6)CC5)cc4)cc3S(=O)(=O)C(F)(F)F)CC2)C(C)(C)C)cc1", "values": [
      {"measurement": "DC50", "setting": "[6]", "value": 53, "unit": "nM"},
      {"measurement": "EC50", "setting": "MOLT-4 [7]", "value": 52, "unit": "nM"},
      {"measurement": "Emax", "setting": "[8]", "value": 90.8, "unit": "%"}
    ]},
    {"smiles": "Cc1ncsc1-c1ccc(CNC(=O)[C@@H]2C[C@@H](O)CN2C(=O)[C@H](NC(=O)CCOCCOCCOCCOCCOCCOCC#Cc2ccc(OCCCc3sc(N4CCc5cccc(C(=O)Nc6nc7ccccc7s6)c5C4)nc3C(=O)O)cc2)C(C)(C)C)cc1", "values": [
      {"measurement": "EC50", "setting": "MOLT-4 [9]", "value": 578, "unit": "nM"},
      {"measurement": "DC50", "setting": "[10]", "value": 4.8, "unit": "nM"},
      {"measurement": "Emax", "setting": "[11]", "value": 76, "unit": "%"}
    ]}
  ]
}
